# Test results reported in PubChem BioAssay (NCI).
#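 Protocol summary: plate cells (96-well), add compound at 5 concentrations, incubate 48 h, interpolate endpoints linearly. At the GI50, growth is halved. TGI: total growth inhibition.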
# Columns and labels:
# Experiment in all cases: DTP human tumour cell line panel, 48 h
# MDA-MB-231 breast = system: MDA-MB-231 breast
# HCT-116 colon = system: HCT-116 colon
# 786-0 renal = system: 786-0 renal
# MOLT-4 leukemia = system: MOLT-4 leukemia
# NCI-H460 lung = system: NCI-H460 lung
# OVCAR-3 ovarian = system: OVCAR-3 ovarian
# SN12C renal = system: SN12C renal
# SNB-75 CNS = system: SNB-75 CNS
# OVCAR-5 ovarian = system: OVCAR-5 ovarian
# LOX IMVI melanoma = system: LOX IMVI melanoma
# SK-MEL-5 melanoma = system: SK-MEL-5 melanoma
# NCI/ADR-RES ovarian = system: NCI/ADR-RES ovarian
# PC-3 prostate = system: PC-3 prostate
# RXF 393 renal = system: RXF 393 renal
# U251 CNS = system: U251 CNS
# RPMI-8226 leukemia = system: RPMI-8226 leukemia
# A498 renal = system: A498 renal
# NCI-H522 lung = system: NCI-H522 lung
# HL-60(TB) leukemia = system: HL-60(TB) leukemia
# UO-31 renal = system: UO-31 renal
# TK-10 renal = system: TK-10 renal
# SK-OV-3 ovarian = system: SK-OV-3 ovarian
# HCC-2998 colon = system: HCC-2998 colon
# HT29 colon = system: HT29 colon
# IGROV1 ovarian = system: IGROV1 ovarian
# SF-295 CNS = system: SF-295 CNS
# HOP-92 NSCLC = system: HOP-92 NSCLC
# DU-145 prostate = system: DU-145 prostate
# A549 NSCLC = system: A549 NSCLC
# EKVX NSCLC = system: EKVX NSCLC
# HOP-62 NSCLC = system: HOP-62 NSCLC
# T-47D breast = system: T-47D breast
# SK-MEL-2 melanoma = system: SK-MEL-2 melanoma
# CCRF-CEM leukemia = system: CCRF-CEM leukemia
# SNB-19 CNS = system: SNB-19 CNS
# HS 578T breast = system: HS 578T breast
# MALME-3M melanoma = system: MALME-3M melanoma
# OVCAR-8 ovarian = system: OVCAR-8 ovarian
# SF-539 CNS = system: SF-539 CNS
# ACHN renal = system: ACHN renal
# SK-MEL-28 melanoma = system: SK-MEL-28 melanoma
# CAKI-1 renal = system: CAKI-1 renal
# HCT-15 colon = system: HCT-15 colon
# UACC-62 melanoma = system: UACC-62 melanoma
# COLO 205 colon = system: COLO 205 colon
# UACC-257 melanoma = system: UACC-257 melanoma
# NCI-H226 lung = system: NCI-H226 lung
# MDA-MB-435 = system: MDA-MB-435
# K-562 leukemia = system: K-562 leukemia
# NCI-H23 lung = system: NCI-H23 lung
# SW-620 colon = system: SW-620 colon
# M14 melanoma = system: M14 melanoma
# OVCAR-4 ovarian = system: OVCAR-4 ovarian
# MCF7 breast = system: MCF7 breast
# KM12 colon = system: KM12 colon
# SF-268 CNS = system: SF-268 CNS
# BT-549 breast = system: BT-549 breast
smiles,measurement,setting,value
Cc1nc2ccccc2c(/C=C/c2ccc(C(F)(F)F)cc2)c1C(=O)/C=C/c1ccccc1,GI50,MDA-MB-231 breast,1.74 µM
same,TGI,MDA-MB-231 breast,3.65 µM
same,GI50,HCT-116 colon,0.521 µM
same,TGI,HCT-116 colon,2.03 µM
same,GI50,786-0 renal,1.58 µM
same,TGI,786-0 renal,3.07 µM
same,GI50,MOLT-4 leukemia,0.508 µM
same,TGI,MOLT-4 leukemia,5.79 µM
same,GI50,NCI-H460 lung,1.13 µM
same,TGI,NCI-H460 lung,2.57 µM
same,GI50,OVCAR-3 ovarian,1.2 µM
same,TGI,OVCAR-3 ovarian,2.52 µM
same,GI50,SN12C renal,1.54 µM
same,TGI,SN12C renal,3.01 µM
same,GI50,SNB-75 CNS,1.38 µM
same,TGI,SNB-75 CNS,2.81 µM
same,GI50,OVCAR-5 ovarian,1.86 µM
same,TGI,OVCAR-5 ovarian,3.35 µM
same,GI50,LOX IMVI melanoma,1.58 µM
same,TGI,LOX IMVI melanoma,2.94 µM
same,GI50,SK-MEL-5 melanoma,1.69 µM
same,TGI,SK-MEL-5 melanoma,3.05 µM
same,GI50,NCI/ADR-RES ovarian,1.97 µM
same,TGI,NCI/ADR-RES ovarian,4.76 µM
same,GI50,PC-3 prostate,1.34 µM
same,TGI,PC-3 prostate,3.17 µM
same,GI50,RXF 393 renal,1.46 µM
same,TGI,RXF 393 renal,2.81 µM
same,GI50,U251 CNS,1.47 µM
same,TGI,U251 CNS,2.92 µM
same,GI50,RPMI-8226 leukemia,0.999 µM
same,TGI,RPMI-8226 leukemia,4.64 µM
same,GI50,A498 renal,1.69 µM
same,TGI,A498 renal,3.13 µM
same,GI50,NCI-H522 lung,1.33 µM
same,TGI,NCI-H522 lung,3.07 µM
same,GI50,HL-60(TB) leukemia,1.94 µM
same,TGI,HL-60(TB) leukemia,4.44 µM
same,GI50,UO-31 renal,1.08 µM
same,TGI,UO-31 renal,2.27 µM
same,GI50,TK-10 renal,2.05 µM
same,TGI,TK-10 renal,3.63 µM
same,GI50,SK-OV-3 ovarian,1.54 µM
same,TGI,SK-OV-3 ovarian,2.98 µM
same,GI50,HCC-2998 colon,1.57 µM
same,TGI,HCC-2998 colon,3.29 µM
same,GI50,HT29 colon,1.04 µM
same,TGI,HT29 colon,6.05 µM
same,GI50,IGROV1 ovarian,1.12 µM
same,TGI,IGROV1 ovarian,3 µM
same,GI50,SF-295 CNS,1.77 µM
same,TGI,SF-295 CNS,3.22 µM
same,GI50,HOP-92 NSCLC,1.32 µM
same,TGI,HOP-92 NSCLC,2.98 µM
same,GI50,DU-145 prostate,1.6 µM
same,TGI,DU-145 prostate,3.1 µM
same,GI50,A549 NSCLC,1.79 µM
same,TGI,A549 NSCLC,4.73 µM
same,GI50,EKVX NSCLC,1.61 µM
same,TGI,EKVX NSCLC,2.99 µM
same,GI50,HOP-62 NSCLC,1.64 µM
same,TGI,HOP-62 NSCLC,3.16 µM
same,GI50,T-47D breast,1.07 µM
same,TGI,T-47D breast,3.13 µM
same,GI50,SK-MEL-2 melanoma,1.76 µM
same,TGI,SK-MEL-2 melanoma,3.64 µM
same,GI50,CCRF-CEM leukemia,0.675 µM
same,TGI,CCRF-CEM leukemia,> 100 µM
same,GI50,SNB-19 CNS,1.64 µM
same,TGI,SNB-19 CNS,3.01 µM
same,GI50,HS 578T breast,1.92 µM
same,TGI,HS 578T breast,5.75 µM
same,GI50,MALME-3M melanoma,1.6 µM
same,TGI,MALME-3M melanoma,3.02 µM
same,GI50,OVCAR-8 ovarian,1.64 µM
same,TGI,OVCAR-8 ovarian,4.91 µM
same,GI50,SF-539 CNS,1.72 µM
same,TGI,SF-539 CNS,3.13 µM
same,GI50,ACHN renal,1.54 µM
same,TGI,ACHN renal,2.87 µM
same,GI50,SK-MEL-28 melanoma,1.77 µM
same,TGI,SK-MEL-28 melanoma,3.22 µM
same,GI50,CAKI-1 renal,1.23 µM
same,TGI,CAKI-1 renal,2.51 µM
same,GI50,HCT-15 colon,1.1 µM
same,TGI,HCT-15 colon,3.16 µM
same,GI50,UACC-62 melanoma,1.49 µM
same,TGI,UACC-62 melanoma,3 µM
same,GI50,COLO 205 colon,1.55 µM
same,TGI,COLO 205 colon,3.82 µM
same,GI50,UACC-257 melanoma,1.61 µM
same,TGI,UACC-257 melanoma,3.17 µM
same,GI50,NCI-H226 lung,1.6 µM
same,TGI,NCI-H226 lung,3.14 µM
CCOC(=O)c1nc2sc(Cl)cn2c1/C=N/N=C(N)N,GI50,MDA-MB-231 breast,14.3 µM
same,TGI,MDA-MB-231 breast,37.2 µM
same,GI50,MDA-MB-435,25.3 µM
same,TGI,MDA-MB-435,> 58.2 µM
same,GI50,K-562 leukemia,17 µM
same,TGI,K-562 leukemia,53.6 µM
same,GI50,HCT-116 colon,18 µM
same,TGI,HCT-116 colon,40.8 µM
same,GI50,786-0 renal,18.6 µM
same,TGI,786-0 renal,39.8 µM
same,GI50,MOLT-4 leukemia,22.8 µM
same,TGI,MOLT-4 leukemia,> 100 µM
same,GI50,NCI-H460 lung,28.2 µM
same,TGI,NCI-H460 lung,> 59.6 µM
same,GI50,OVCAR-3 ovarian,21.5 µM
same,TGI,OVCAR-3 ovarian,42.1 µM
same,GI50,SN12C renal,24 µM
same,TGI,SN12C renal,57.6 µM
same,GI50,SNB-75 CNS,27.9 µM
same,TGI,SNB-75 CNS,68.8 µM
same,GI50,NCI-H23 lung,20.4 µM
same,TGI,NCI-H23 lung,> 69.8 µM
same,GI50,OVCAR-5 ovarian,20.7 µM
same,TGI,OVCAR-5 ovarian,49.5 µM
same,GI50,LOX IMVI melanoma,25.3 µM
same,TGI,LOX IMVI melanoma,> 54.6 µM
same,GI50,SK-MEL-5 melanoma,1.72 µM
same,TGI,SK-MEL-5 melanoma,> 23.1 µM
same,GI50,NCI/ADR-RES ovarian,39 µM
same,TGI,NCI/ADR-RES ovarian,> 83.4 µM
same,GI50,PC-3 prostate,24.4 µM
same,TGI,PC-3 prostate,> 56.8 µM
same,GI50,RXF 393 renal,18.8 µM
same,TGI,RXF 393 renal,> 70.2 µM
same,GI50,U251 CNS,23.6 µM
same,TGI,U251 CNS,> 53.9 µM
same,GI50,SW-620 colon,14.7 µM
same,TGI,SW-620 colon,43.8 µM
same,GI50,RPMI-8226 leukemia,13 µM
same,TGI,RPMI-8226 leukemia,> 51.5 µM
same,GI50,NCI-H522 lung,20.5 µM
same,TGI,NCI-H522 lung,47.1 µM
same,GI50,M14 melanoma,18.8 µM
same,TGI,M14 melanoma,45.6 µM
same,GI50,HL-60(TB) leukemia,26.1 µM
same,TGI,HL-60(TB) leukemia,> 100 µM
same,GI50,UO-31 renal,18.3 µM
same,TGI,UO-31 renal,35.6 µM
same,GI50,TK-10 renal,22.2 µM
same,TGI,TK-10 renal,47.6 µM
same,GI50,SK-OV-3 ovarian,44.3 µM
same,TGI,SK-OV-3 ovarian,98.3 µM
same,GI50,OVCAR-4 ovarian,30.3 µM
same,TGI,OVCAR-4 ovarian,> 100 µM
same,GI50,HT29 colon,28.7 µM
same,TGI,HT29 colon,> 86.4 µM
same,GI50,IGROV1 ovarian,32.7 µM
same,TGI,IGROV1 ovarian,> 100 µM
same,GI50,SF-295 CNS,27.7 µM
same,TGI,SF-295 CNS,> 52.3 µM
same,GI50,HOP-92 NSCLC,20 µM
same,TGI,HOP-92 NSCLC,40.8 µM
same,GI50,DU-145 prostate,24.8 µM
same,TGI,DU-145 prostate,> 67.5 µM
same,GI50,A549 NSCLC,26.9 µM
same,TGI,A549 NSCLC,> 58.3 µM
same,GI50,EKVX NSCLC,26.1 µM
same,TGI,EKVX NSCLC,61.6 µM
same,GI50,MCF7 breast,27.5 µM
same,TGI,MCF7 breast,> 58.7 µM
same,GI50,HOP-62 NSCLC,19.1 µM
same,TGI,HOP-62 NSCLC,40.4 µM
same,GI50,T-47D breast,30.6 µM
same,TGI,T-47D breast,> 74 µM
same,GI50,SK-MEL-2 melanoma,36.5 µM
same,TGI,SK-MEL-2 melanoma,> 87.2 µM
same,GI50,CCRF-CEM leukemia,25.2 µM
same,TGI,CCRF-CEM leukemia,> 64.2 µM
same,GI50,SNB-19 CNS,30 µM
same,TGI,SNB-19 CNS,> 100 µM
same,GI50,HS 578T breast,19.1 µM
same,TGI,HS 578T breast,74.5 µM
same,GI50,MALME-3M melanoma,17.8 µM
same,TGI,MALME-3M melanoma,37.9 µM
same,GI50,OVCAR-8 ovarian,26.9 µM
same,TGI,OVCAR-8 ovarian,> 53.8 µM
same,GI50,SF-539 CNS,42.7 µM
same,TGI,SF-539 CNS,> 100 µM
same,GI50,ACHN renal,22.3 µM
same,TGI,ACHN renal,53.4 µM
same,GI50,SK-MEL-28 melanoma,18.2 µM
same,TGI,SK-MEL-28 melanoma,51 µM
same,GI50,KM12 colon,18.3 µM
same,TGI,KM12 colon,36.6 µM
same,GI50,CAKI-1 renal,27 µM
same,TGI,CAKI-1 renal,> 76.9 µM
same,GI50,HCT-15 colon,26.8 µM
same,TGI,HCT-15 colon,> 75.2 µM
same,GI50,UACC-62 melanoma,17.6 µM
same,TGI,UACC-62 melanoma,34.5 µM
same,GI50,SF-268 CNS,32 µM
same,TGI,SF-268 CNS,> 100 µM
same,GI50,COLO 205 colon,15.1 µM
same,TGI,COLO 205 colon,37.9 µM
same,GI50,UACC-257 melanoma,35.8 µM
same,TGI,UACC-257 melanoma,> 86 µM
same,GI50,NCI-H226 lung,26.3 µM
same,TGI,NCI-H226 lung,> 55.1 µM
same,GI50,BT-549 breast,28.3 µM
same,TGI,BT-549 breast,> 59.6 µM
